Measurements taken from paper PMC5218480 (PLoS ONE, 2017).

Tested on: MV-4-11 cells
Assay: Gene expression microarray analysis (Affymetrix PrimeView) and GSEA
Assay type: cell-based, human
Set-up: RFU PODN (11730768_x_at) / Fold change /veh PODN (11730768_x_at) / RFU LINC00158 (11744669_a_at) / Fold change /veh LINC00158 (11744669_a_at) / RFU DUSP10 (11751237_a_at) / Fold change /veh DUSP10 (11751237_a_at) / RFU ID3 (11757404_x_at) / Fold change /veh ID3 (11757404_x_at) / RFU PLEKHG5 (11737974_s_at) / Fold change /veh PLEKHG5 (11737974_s_at) / RFU LRRC4B (11730491_at) / Fold change /veh LRRC4B (11730491_at) / RFU GIMAP4 (11747438_a_at) / Fold change /veh GIMAP4 (11747438_a_at) / RFU KRT8 (11758183_x_at) / Fold change /veh KRT8 (11758183_x_at) / RFU CNN1 (11734310_a_at) / Fold change /veh CNN1 (11734310_a_at) / RFU VPS37D (11726825_at) / Fold change /veh VPS37D (11726825_at) / RFU C10orf10 (11716522_x_at) / Fold change /veh C10orf10 (11716522_x_at) / RFU KIR2DL2 /// KIR2DL4 /// KIR2DL5A /// KIR2DL5B /// KIR2DS1 /// KIR2DS2 /// KIR2DS3 /// KIR2DS4 /// KIR3DL3 /// KIR3DL3 /// KIR3DS1 (11738374_at) / Fold change /veh KIR2DL2 /// KIR2DL4 /// KIR2DL5A /// KIR2DL5B /// KIR2DS1 /// KIR2DS2 /// KIR2DS3 /// KIR2DS4 /// KIR3DL3 /// KIR3DL3 /// KIR3DS1 (11738374_at) / RFU C1QL1 (11718748_at) / Fold change /veh C1QL1 (11718748_at) / RFU TMPRSS4 (11747572_a_at) / Fold change /veh TMPRSS4 (11747572_a_at) / RFU HAMP (11756126_x_at) / Fold change /veh HAMP (11756126_x_at) / RFU RNFT2 (11725882_a_at) / Fold change /veh RNFT2 (11725882_a_at) / RFU NR4A2 (11747474_a_at) / Fold change /veh NR4A2 (11747474_a_at) / RFU ABCC12 (11746883_a_at) / Fold change /veh ABCC12 (11746883_a_at) / RFU TMEM136 (11760407_x_at) / Fold change /veh TMEM136 (11760407_x_at) / RFU CLDN22 /// WWC2 (11732394_at) / Fold change /veh CLDN22 /// WWC2 (11732394_at) / RFU HLA-DPB1 (11760878_x_at) / Fold change /veh HLA-DPB1 (11760878_x_at) / RFU SPINT1 (11716480_a_at) / Fold change /veh SPINT1 (11716480_a_at) / RFU GAP43 (11754022_s_at) / Fold change /veh GAP43 (11754022_s_at) / RFU A4GNT (11735810_at) / Fold change /veh A4GNT (11735810_at) / RFU PRB3 (11715151_x_at) / Fold change /veh PRB3 (11715151_x_at) / RFU TUBB4B (11761932_at) / Fold change /veh TUBB4B (11761932_at) / RFU CAPN14 (11732068_a_at) / Fold change /veh CAPN14 (11732068_a_at) / RFU TMCC2 (11721928_a_at) / Fold change /veh TMCC2 (11721928_a_at) / RFU IRGQ (11745062_a_at) / Fold change /veh IRGQ (11745062_a_at) / RFU FAM174B (11720279_a_at) / Fold change /veh FAM174B (11720279_a_at) / RFU TMPRSS4 (11748680_a_at) / Fold change /veh TMPRSS4 (11748680_a_at) / RFU FAM212B (11763350_a_at) / Fold change /veh FAM212B (11763350_a_at) / RFU PLEKHG5 (11743358_a_at) / Fold change /veh PLEKHG5 (11743358_a_at) / RFU ZSCAN30 (11745921_a_at) / Fold change /veh ZSCAN30 (11745921_a_at) / RFU CMKLR1 (11741424_a_at) / Fold change /veh CMKLR1 (11741424_a_at) / RFU LOC101060620 /// MAPK8IP1 (11723275_at) / Fold change /veh LOC101060620 /// MAPK8IP1 (11723275_at) / RFU SPTSSB (11747773_x_at) / Fold change /veh SPTSSB (11747773_x_at) / RFU PRSS12 (11739890_at) / Fold change /veh PRSS12 (11739890_at) / RFU BIN1 (11741810_x_at) / Fold change /veh BIN1 (11741810_x_at) / RFU WNT11 (11732464_a_at) / Fold change /veh WNT11 (11732464_a_at) / RFU C10orf10 (11716521_a_at) / Fold change /veh C10orf10 (11716521_a_at) / RFU C5orf56 (11738089_at) / Fold change /veh C5orf56 (11738089_at) / RFU CYB561 (11721691_x_at) / Fold change /veh CYB561 (11721691_x_at) / RFU ANKRD19P (11752326_a_at) / Fold change /veh ANKRD19P (11752326_a_at) / RFU OR2T12 /// OR2T33 /// OR2T8 (11738714_s_at) / Fold change /veh OR2T12 /// OR2T33 /// OR2T8 (11738714_s_at) / RFU VCAN (11748164_a_at) / Fold change /veh VCAN (11748164_a_at) / RFU JSRP1 (11732532_at) / Fold change /veh JSRP1 (11732532_at) / RFU KRTAP10-11 (11738290_x_at) / Fold change /veh KRTAP10-11 (11738290_x_at) / RFU MYO3A (11730013_a_at) / Fold change /veh MYO3A (11730013_a_at) / RFU EBF3 (11725865_a_at) / Fold change /veh EBF3 (11725865_a_at) / RFU CAMK2N1 (11719241_x_at) / Fold change /veh CAMK2N1 (11719241_x_at) / RFU C5orf56 (11738088_a_at) / Fold change /veh C5orf56 (11738088_a_at) / RFU OLFML3 (11715873_a_at) / Fold change /veh OLFML3 (11715873_a_at) / RFU LOC100653217 /// NTM (11731650_a_at) / Fold change /veh LOC100653217 /// NTM (11731650_a_at) / RFU MAPK11 (11762145_a_at) / Fold change /veh MAPK11 (11762145_a_at) / RFU FIZ1 (11724087_x_at) / Fold change /veh FIZ1 (11724087_x_at) / RFU OASL (11726364_x_at) / Fold change /veh OASL (11726364_x_at) / RFU SOX15 (11748057_x_at) / Fold change /veh SOX15 (11748057_x_at) / RFU CD79A (11719716_a_at) / Fold change /veh CD79A (11719716_a_at) / RFU HIST1H1D (11736915_at) / Fold change /veh HIST1H1D (11736915_at) / RFU CASKIN2 (11723855_a_at) / Fold change /veh CASKIN2 (11723855_a_at) / RFU LOC730098 (11760151_x_at) / Fold change /veh LOC730098 (11760151_x_at) / RFU OR4N2 (11742367_at) / Fold change /veh OR4N2 (11742367_at) / RFU PRRT2 (11749266_a_at) / Fold change /veh PRRT2 (11749266_a_at) / RFU SNX32 (11753110_a_at) / Fold change /veh SNX32 (11753110_a_at) / RFU CDHR5 (11726645_a_at) / Fold change /veh CDHR5 (11726645_a_at) / RFU RCAN1 (11760418_a_at) / Fold change /veh RCAN1 (11760418_a_at) / RFU FAM167A (11723789_a_at) / Fold change /veh FAM167A (11723789_a_at) / RFU FAM26E (11764081_at) / Fold change /veh FAM26E (11764081_at) / RFU ISYNA1 (11749810_s_at) / Fold change /veh ISYNA1 (11749810_s_at) / RFU ACY1 (11761880_at) / Fold change /veh ACY1 (11761880_at) / RFU 11764098_at / Fold change /veh 11764098_at / RFU SAMD14 (11745864_x_at) / Fold change /veh SAMD14 (11745864_x_at) / RFU NPB (11741838_a_at) / Fold change /veh NPB (11741838_a_at) / RFU TMPRSS6 (11731388_a_at) / Fold change /veh TMPRSS6 (11731388_a_at) / RFU KRTAP10-2 (11738614_at) / Fold change /veh KRTAP10-2 (11738614_at) / RFU ARHGAP8 /// PRR5-ARHGAP8 (11727945_x_at) / Fold change /veh ARHGAP8 /// PRR5-ARHGAP8 (11727945_x_at) / RFU KRTAP5-7 /// NADSYN1 (11734609_at) / Fold change /veh KRTAP5-7 /// NADSYN1 (11734609_at) / RFU RASL12 (11751679_a_at) / Fold change /veh RASL12 (11751679_a_at) / RFU CDKN2B (11736163_a_at) / Fold change /veh CDKN2B (11736163_a_at) / RFU PRF1 (11729649_at) / Fold change /veh PRF1 (11729649_at) / RFU, ZNF638 /// ZNF638-IT1 / Fold change vs veh, ZNF638 /// ZNF638-IT1 / RFU, PANK3 / Fold change vs veh, PANK3 / RFU, SH3YL1 / Fold change vs veh, SH3YL1 / RFU, ZEB2 / Fold change vs veh, ZEB2 / RFU, NRIP1 / Fold change vs veh, NRIP1 / RFU, PTTG1IP / Fold change vs veh, PTTG1IP / RFU, CAPN2 / Fold change vs veh, CAPN2 / RFU, MED14 / Fold change vs veh, MED14 / RFU, SNORA58 / Fold change vs veh, SNORA58 / RFU, C1orf63 / Fold change vs veh, C1orf63 / RFU, LRRFIP1 / Fold change vs veh, LRRFIP1 / RFU, NDUFAF7 / Fold change vs veh, NDUFAF7 / RFU, SLC12A2 / Fold change vs veh, SLC12A2 / RFU, IBTK / Fold change vs veh, IBTK / RFU, ESF1 / Fold change vs veh, ESF1 / Fold change vs veh, TMEM50B / RFU, TAOK1 / Fold change vs veh, TAOK1 / RFU, ACBD3 / Fold change vs veh, ACBD3 / RFU, TMA16 / Fold change vs veh, TMA16 / RFU, RWDD3 / Fold change vs veh, RWDD3 / RFU, BCAT1 / Fold change vs veh, BCAT1 / RFU, EDEM3 / Fold change vs veh, EDEM3 / RFU, TMEM33 / Fold change vs veh, TMEM33 / RFU, WDR75 / Fold change vs veh, WDR75 / RFU, AHCTF1 / Fold change vs veh, AHCTF1 / RFU, TFRC / Fold change vs veh, TFRC / RFU, ZDHHC17 / Fold change vs veh, ZDHHC17 / RFU, NOM1 / Fold change vs veh, NOM1 / RFU, ARL8B / Fold change vs veh, ARL8B / RFU, ZBTB11 / Fold change vs veh, ZBTB11 / RFU, TAMM41 / Fold change vs veh, TAMM41 / RFU, KIAA1704 /// LOC100996395 / Fold change vs veh, KIAA1704 /// LOC100996395 / RFU, ING1 / Fold change vs veh, ING1 / RFU, TRMT61B / Fold change vs veh, TRMT61B / RFU, FUBP3 / Fold change vs veh, FUBP3 / RFU, TP53 / Fold change vs veh, TP53 / RFU, TNKS2 / Fold change vs veh, TNKS2 / RFU, ZFP14 / Fold change vs veh, ZFP14 / RFU, ACTR2 / Fold change vs veh, ACTR2 / RFU, PPP3R1 / Fold change vs veh, PPP3R1 / RFU, PIK3R1 / Fold change vs veh, PIK3R1 / RFU, HNRNPA1 / Fold change vs veh, HNRNPA1 / RFU, RNF170 / Fold change vs veh, RNF170 / RFU, ZNF28 / Fold change vs veh, ZNF28 / RFU, RNGTT / Fold change vs veh, RNGTT / RFU, OGT / Fold change vs veh, OGT / RFU, BRD1 / Fold change vs veh, BRD1 / RFU, MARS / Fold change vs veh, MARS / RFU, ZNF655 / Fold change vs veh, ZNF655 / RFU, FAHD1 / Fold change vs veh, FAHD1 / RFU, BDP1 / Fold change vs veh, BDP1 / RFU, LRRCC1 / Fold change vs veh, LRRCC1 / RFU, ARID1A / Fold change vs veh, ARID1A / RFU, ZNF146 / Fold change vs veh, ZNF146 / RFU, ZNF330 / Fold change vs veh, ZNF330 / RFU, GPN3 / Fold change vs veh, GPN3 / RFU, C9orf123 / Fold change vs veh, C9orf123 / RFU, N4BP2L2 / Fold change vs veh, N4BP2L2 / RFU, ARFIP1 / Fold change vs veh, ARFIP1 / RFU, FAM179B / Fold change vs veh, FAM179B / RFU, BCL10 / Fold change vs veh, BCL10 / RFU, UHRF1BP1L / Fold change vs veh, UHRF1BP1L / RFU, BET1 / Fold change vs veh, BET1 / RFU, CNOT2 / Fold change vs veh, CNOT2 / RFU, ZNF268 / Fold change vs veh, ZNF268 / Fold change vs veh, ZNF507 / RFU, DGCR2 / Fold change vs veh, DGCR2 / RFU, WDSUB1 / Fold change vs veh, WDSUB1 / Fold change vs veh, HSP90B1 /// MIR3652 / RFU, ADSS / Fold change vs veh, ADSS / RFU, GK / Fold change vs veh, GK / RFU, ZNF148 / Fold change vs veh, ZNF148 / RFU, TAF9 / Fold change vs veh, TAF9 / RFU, SLC1A5 / Fold change vs veh, SLC1A5 / RFU, SLMO2 / Fold change vs veh, SLMO2 / RFU, ABCC4 / Fold change vs veh, ABCC4 / RFU, LOC101060439 /// RAP1B / Fold change vs veh, LOC101060439 /// RAP1B / RFU, RFX7 / Fold change vs veh, RFX7 / RFU, GTPBP10 / Fold change vs veh, GTPBP10 / RFU, CNEP1R1 / Fold change vs veh, CNEP1R1 / RFU, BIVM-ERCC5 /// ERCC5 / Fold change vs veh, BIVM-ERCC5 /// ERCC5 / RFU, ILF3 / Fold change vs veh, ILF3 / RFU 11762660_at / Fold change /veh 11762660_at / RFU VCAN (11757783_s_at) / Fold change /veh VCAN (11757783_s_at) / RFU DDX43 (11728927_at) / Fold change /veh DDX43 (11728927_at) / RFU KRT8 (11758188_x_at) / Fold change /veh KRT8 (11758188_x_at) / RFU NKD1 (11759106_at) / Fold change /veh NKD1 (11759106_at) / RFU SRD5A1 (11742802_a_at) / Fold change /veh SRD5A1 (11742802_a_at) / RFU TPSAB1 /// TPSB2 (11721975_s_at) / Fold change /veh TPSAB1 /// TPSB2 (11721975_s_at) / RFU GSTM3 (11746129_a_at) / Fold change /veh GSTM3 (11746129_a_at) / RFU IL23R (11737362_x_at) / Fold change /veh IL23R (11737362_x_at) / RFU TMEM51 (11727254_a_at) / Fold change /veh TMEM51 (11727254_a_at) / RFU PIWIL2 (11732686_x_at) / Fold change /veh PIWIL2 (11732686_x_at) / RFU ORM1 (11744905_x_at) / Fold change /veh ORM1 (11744905_x_at) / RFU CCDC152 (11743942_at) / Fold change /veh CCDC152 (11743942_at) / RFU ECM1 (11717891_a_at) / Fold change /veh ECM1 (11717891_a_at) / RFU IL23R (11748794_a_at) / Fold change /veh IL23R (11748794_a_at) / RFU TNFAIP8L3 (11732012_x_at) / Fold change /veh TNFAIP8L3 (11732012_x_at) / RFU MBOAT4 (11741988_at) / Fold change /veh MBOAT4 (11741988_at) / RFU 11764193_at / Fold change /veh 11764193_at / RFU TMEM53 (11763286_at) / Fold change /veh TMEM53 (11763286_at) / RFU MAGEB2 (11727129_at) / Fold change /veh MAGEB2 (11727129_at) / RFU TMEM200A (11744735_a_at) / Fold change /veh TMEM200A (11744735_a_at) / RFU CCDC152 (11751479_a_at) / Fold change /veh CCDC152 (11751479_a_at) / RFU FAM211A (11726209_a_at) / Fold change /veh FAM211A (11726209_a_at) / RFU RGS16 (11746705_a_at) / Fold change /veh RGS16 (11746705_a_at) / RFU VCAN (11755009_s_at) / Fold change /veh VCAN (11755009_s_at) / RFU RHOB (11743442_s_at) / Fold change /veh RHOB (11743442_s_at) / RFU RGS16 (11720943_a_at) / Fold change /veh RGS16 (11720943_a_at) / RFU RGS16 (11720944_at) / Fold change /veh RGS16 (11720944_at) / RFU, VPS4B / Fold change vs veh, VPS4B / RFU, CREB1 / Fold change vs veh, CREB1 / RFU, DNAJC13 / Fold change vs veh, DNAJC13 / RFU, GNAQ / Fold change vs veh, GNAQ / RFU, CDK5R1 / Fold change vs veh, CDK5R1 / RFU, ZRANB3 / Fold change vs veh, ZRANB3 / RFU, CUL4A / Fold change vs veh, CUL4A / RFU, CCNY / Fold change vs veh, CCNY / RFU, UFL1 / Fold change vs veh, UFL1 / RFU, COG3 / Fold change vs veh, COG3 / RFU, DIAPH2 / Fold change vs veh, DIAPH2 / RFU, SKA2 / Fold change vs veh, SKA2 / RFU, AFF3 / Fold change vs veh, AFF3 / RFU, LMF1 / Fold change vs veh, LMF1 / RFU, IPO11 / Fold change vs veh, IPO11 / RFU, DFFB / Fold change vs veh, DFFB / RFU, FOXP1 / Fold change vs veh, FOXP1 / RFU, CARD8 / Fold change vs veh, CARD8 / RFU, STRN3 / Fold change vs veh, STRN3 / RFU, ADK / Fold change vs veh, ADK / RFU, RASSF2 / Fold change vs veh, RASSF2 / RFU, WIPF1 / Fold change vs veh, WIPF1 / RFU, LARP1B / Fold change vs veh, LARP1B / RFU, RASA1 / Fold change vs veh, RASA1 / RFU, RB1 / Fold change vs veh, RB1 / RFU, PPFIA1 / Fold change vs veh, PPFIA1 / RFU, MAT2A / Fold change vs veh, MAT2A / RFU, CCT5 / Fold change vs veh, CCT5 / RFU, WDR92 / Fold change vs veh, WDR92 / RFU, CUX1 / Fold change vs veh, CUX1 / RFU, TTC7A / Fold change vs veh, TTC7A / RFU, TMEM135 / Fold change vs veh, TMEM135 / RFU, DEPTOR / Fold change vs veh, DEPTOR / RFU, CPM / Fold change vs veh, CPM / RFU, DNAJB6 / Fold change vs veh, DNAJB6 / RFU, CACNA2D3 / Fold change vs veh, CACNA2D3 / RFU, DTX4 / Fold change vs veh, DTX4 / RFU, TFCP2 / Fold change vs veh, TFCP2 / RFU, GMCL1 /// GMCL1P1 / Fold change vs veh, GMCL1 /// GMCL1P1 / RFU, AEBP2 / Fold change vs veh, AEBP2 / RFU, SNHG1 /// SNORD22 /// SNORD25 /// SNORD26 /// SNORD27 /// SNORD28 /// SNORD29 /// SNORD31 / Fold change vs veh, SNHG1 /// SNORD22 /// SNORD25 /// SNORD26 /// SNORD27 /// SNORD28 /// SNORD29 /// SNORD31 / Fold change (Aza/veh), C12orf56 (ProbeSet 11735607_a_at) / Fold change (ACY-1035/veh), C12orf56 (ProbeSet 11735607_a_at) / Fold change (Aza/veh), FGFR1OP (ProbeSet 11751329_s_at) / Fold change (ACY-1035/veh), FGFR1OP (ProbeSet 11751329_s_at) / Fold change (Aza/veh), VPS36 (ProbeSet 11739960_a_at) / Fold change (ACY-1035/veh), VPS36 (ProbeSet 11739960_a_at) / RFU SYPL1 (11715823_x_at) / Fold change /veh SYPL1 (11715823_x_at) / RFU IGFBP7 (11715501_s_at) / Fold change /veh IGFBP7 (11715501_s_at) / RFU REEP3 (11722064_at) / Fold change /veh REEP3 (11722064_at) / RFU IGLL1 (11728026_x_at) / Fold change /veh IGLL1 (11728026_x_at): dose or concentration left out as unconfirmed
Details: ProbeSet 11728443_a_at; LIST B

## Nc1ncn([C@@H]2O[C@H](CO)[C@@H](O)[C@H]2O)c(=O)n1 [azacitidine]
  Fold change vs veh, TAOK1: 0.96
